Values quoted from earlier work as cited in patent EP0467998B1, “PEPTIDES FROM RETINOBLASTOMA GENE PRODUCTS AND ANTIBODIES THERETO” (BAYLOR COLLEGE OF MEDICINE, priority 1989, dated 1990).

settings: individual amino acid, Hopp and Woods (1981)

SMILES	Hydrophilicity Value
N[C@@H](Cc1c[nH]c2ccccc12)C(=O)O [Trp]	-3.4
C[C@@H](O)[C@H](N)C(=O)O [Thr]	-0.4
O=C(O)[C@@H]1CCCN1 [Pro]	0.0
CC[C@H](C)[C@H](N)C(=O)O [Ile]	-1.8
NCCCC[C@H](N)C(=O)O [Lys]	3.0
N[C@@H](CC(=O)O)C(=O)O [Asp]	3.0
N[C@@H](Cc1ccc(O)cc1)C(=O)O [Tyr]	-2.3
CC(C)[C@H](N)C(=O)O [Val]	-1.5
NCC(=O)O [Gly]	0.0
C[C@H](N)C(=O)O [Ala]	-0.5
CSCC[C@H](N)C(=O)O [Met]	-1.3
N=C(N)NCCC[C@H](N)C(=O)O [Arg]	3.0
N[C@@H](Cc1c[nH]cn1)C(=O)O [His]	-0.5
N[C@@H](CCC(=O)O)C(=O)O [Glu]	3.0
N[C@@H](CO)C(=O)O [Ser]	0.3
N[C@@H](CS)C(=O)O [Cys]	-1.0
N[C@@H](Cc1ccccc1)C(=O)O [Phe]	-2.5
NC(=O)C[C@H](N)C(=O)O [Asn]	0.2
